Marks after values point to notes of the source that are not given here.
How the values were obtained:
[1] = test system: db/db mice; test: Oral glucose tolerance test (OGTT); assay type: in vivo; set-up: OGTT AUC: unit not given here
Experimental: Four to five weeks old db/db mice (BKS.Cg-Dock7^m+/+Lepr^db/JNarl) and m/m mice (BKS.Cg-Dock7^m+/Dock7^m+) were obtained from National Laboratory Animal Center ([…], Taiwan). […] PMI Nutrition International, Brentwood, Mo.) and water ad libitum. […] Blood was sampled from the tail vein, and FPG levels were measured and recorded as the basic blood glucose levels. […] The total area under the curve (AUC) in OGTT was plotted and calculated by the Area Under Coordinates Program (StatsToDo Server, Department of Obstetrics and Gynecology, Chinese University of Hong Kong).

[2] = test system: db/db mice; test: Histopathological assessment (H&E stain); assay type: in vivo
Description: For histopathological assessment, all mice were sacrificed by 95% CO2 asphyxiation at the end of the study period. Their brain, liver, kidney, pancreas, and epididymal fat pads were removed, fixed in 10% phosphate-buffered formalin, and embedded in paraffin. Tissues embedded in paraffin were cut into […] sections that were then stained with hematoxylin-eosin (i.e., H&E stain).

C[C@@H](O)[C@H]1C(=O)N2C(C(=O)O)=C(S[C@@H]3CN[C@H](C(=O)Nc4cccc(C(=O)O)c4)C3)[C@H](C)[C@H]12 [DMH, ertapenem]
OGTT AUC ([1]; Ex 2 G4 db/db, DMH i.p. 0.1 mg/g bw/day, dosing 6 weeks, week 12): 1096 ± 119^b
OGTT AUC ([1]; Ex 2 G4 db/db, DMH i.p. 0.1 mg/g bw/day, dosing 6 weeks, week 16): 902 ± 85^b
OGTT AUC ([1]; Ex 2 G4 db/db, DMH i.p. 0.1 mg/g bw/day, dosing 6 weeks, week 18): 1339 ± 80^b
Level of OGTT (blood glucose) ([1]; Ex 2 G5 db/db, DMH i.p. 0.2 mg/g bw/day, dosing 6 weeks, Week 6, 0 min): 166 ± 21 mg/dL
Level of OGTT (blood glucose) ([1]; Ex 2 G5 db/db, DMH i.p. 0.2 mg/g bw/day, dosing 6 weeks, Week 6, 15 min): 750 ± 57 mg/dL
Level of OGTT (blood glucose) ([1]; Ex 2 G5 db/db, DMH i.p. 0.2 mg/g bw/day, dosing 6 weeks, Week 6, 30 min): 618 ± 68 mg/dL
Level of OGTT (blood glucose) ([1]; Ex 2 G5 db/db, DMH i.p. 0.2 mg/g bw/day, dosing 6 weeks, Week 6, 60 min): 425 ± 63 mg/dL
Level of OGTT (blood glucose) ([1]; Ex 2 G5 db/db, DMH i.p. 0.2 mg/g bw/day, dosing 6 weeks, Week 6, 120 min): 316 ± 92^bc
Level of OGTT (blood glucose) ([1]; Ex 2 G5 db/db, DMH i.p. 0.2 mg/g bw/day, dosing 6 weeks, Week 12, 0 min): 191 ± 42^bc
Level of OGTT (blood glucose) ([1]; Ex 2 G5 db/db, DMH i.p. 0.2 mg/g bw/day, dosing 6 weeks, Week 12, 15 min): 879 ± 45 mg/dL
Level of OGTT (blood glucose) ([1]; Ex 2 G5 db/db, DMH i.p. 0.2 mg/g bw/day, dosing 6 weeks, Week 12, 30 min): 790 ± 40^bc
Level of OGTT (blood glucose) ([1]; Ex 2 G5 db/db, DMH i.p. 0.2 mg/g bw/day, dosing 6 weeks, Week 12, 60 min): 548 ± 69 mg/dL
Level of OGTT (blood glucose) ([1]; Ex 2 G5 db/db, DMH i.p. 0.2 mg/g bw/day, dosing 6 weeks, Week 12, 120 min): 440 ± 81^bc
Level of OGTT (blood glucose) ([1]; Ex 2 G5 db/db, DMH i.p. 0.2 mg/g bw/day, dosing 6 weeks, Week 16, 0 min): 154 ± 56^ab
Level of OGTT (blood glucose) ([1]; Ex 2 G5 db/db, DMH i.p. 0.2 mg/g bw/day, dosing 6 weeks, Week 16, 15 min): 619 ± 48 mg/dL
Level of OGTT (blood glucose) ([1]; Ex 2 G5 db/db, DMH i.p. 0.2 mg/g bw/day, dosing 6 weeks, Week 16, 30 min): 686 ± 34^bc
Level of OGTT (blood glucose) ([1]; Ex 2 G5 db/db, DMH i.p. 0.2 mg/g bw/day, dosing 6 weeks, Week 16, 60 min): 551 ± 52^bc
Level of OGTT (blood glucose) ([1]; Ex 2 G5 db/db, DMH i.p. 0.2 mg/g bw/day, dosing 6 weeks, Week 16, 120 min): 314 ± 54^bc
Level of OGTT (blood glucose) ([1]; Ex 2 G5 db/db, DMH i.p. 0.2 mg/g bw/day, dosing 6 weeks, Week 18, 0 min): 308 ± 51 mg/dL
Level of OGTT (blood glucose) ([1]; Ex 2 G5 db/db, DMH i.p. 0.2 mg/g bw/day, dosing 6 weeks, Week 18, 15 min): 943 ± 43 mg/dL
Level of OGTT (blood glucose) ([1]; Ex 2 G5 db/db, DMH i.p. 0.2 mg/g bw/day, dosing 6 weeks, Week 18, 30 min): 941 ± 53 mg/dL
Level of OGTT (blood glucose) ([1]; Ex 2 G5 db/db, DMH i.p. 0.2 mg/g bw/day, dosing 6 weeks, Week 18, 60 min): 753 ± 70 mg/dL
Level of OGTT (blood glucose) ([1]; Ex 2 G5 db/db, DMH i.p. 0.2 mg/g bw/day, dosing 6 weeks, Week 18, 120 min): 541 ± 63^bc
OGTT AUC ([1]; Ex 2 G5 db/db, DMH i.p. 0.2 mg/g bw/day, dosing 6 weeks, week 6): 916 ± 110^b
OGTT AUC ([1]; Ex 2 G5 db/db, DMH i.p. 0.2 mg/g bw/day, dosing 6 weeks, week 12): 1171 ± 117^bc
OGTT AUC ([1]; Ex 2 G5 db/db, DMH i.p. 0.2 mg/g bw/day, dosing 6 weeks, week 16): 1002 ± 88^bc
OGTT AUC ([1]; Ex 2 G5 db/db, DMH i.p. 0.2 mg/g bw/day, dosing 6 weeks, week 18): 1462 ± 104^b
Level of OGTT (blood glucose) ([1]; Ex 2 G6 db/db, DMH i.p. 0.4 mg/g bw/day, dosing 6 weeks, Week 6, 0 min): 175 ± 30 mg/dL
Level of OGTT (blood glucose) ([1]; Ex 2 G6 db/db, DMH i.p. 0.4 mg/g bw/day, dosing 6 weeks, Week 6, 15 min): 747 ± 38 mg/dL
Level of OGTT (blood glucose) ([1]; Ex 2 G6 db/db, DMH i.p. 0.4 mg/g bw/day, dosing 6 weeks, Week 6, 30 min): 669 ± 69 mg/dL
Level of OGTT (blood glucose) ([1]; Ex 2 G6 db/db, DMH i.p. 0.4 mg/g bw/day, dosing 6 weeks, Week 6, 60 min): 418 ± 56 mg/dL
Level of OGTT (blood glucose) ([1]; Ex 2 G6 db/db, DMH i.p. 0.4 mg/g bw/day, dosing 6 weeks, Week 6, 120 min): 223 ± 27^ab
Level of OGTT (blood glucose) ([1]; Ex 2 G6 db/db, DMH i.p. 0.4 mg/g bw/day, dosing 6 weeks, Week 12, 0 min): 166 ± 26^ac
Level of OGTT (blood glucose) ([1]; Ex 2 G6 db/db, DMH i.p. 0.4 mg/g bw/day, dosing 6 weeks, Week 12, 15 min): 859 ± 50 mg/dL
Level of OGTT (blood glucose) ([1]; Ex 2 G6 db/db, DMH i.p. 0.4 mg/g bw/day, dosing 6 weeks, Week 12, 30 min): 698 ± 65 mg/dL
Level of OGTT (blood glucose) ([1]; Ex 2 G6 db/db, DMH i.p. 0.4 mg/g bw/day, dosing 6 weeks, Week 12, 60 min): 489 ± 55 mg/dL
Level of OGTT (blood glucose) ([1]; Ex 2 G6 db/db, DMH i.p. 0.4 mg/g bw/day, dosing 6 weeks, Week 12, 120 min): 324 ± 47 mg/dL
Level of OGTT (blood glucose) ([1]; Ex 2 G6 db/db, DMH i.p. 0.4 mg/g bw/day, dosing 6 weeks, Week 16, 0 min): 108 ± 22^ab
Level of OGTT (blood glucose) ([1]; Ex 2 G6 db/db, DMH i.p. 0.4 mg/g bw/day, dosing 6 weeks, Week 16, 15 min): 543 ± 57 mg/dL
Level of OGTT (blood glucose) ([1]; Ex 2 G6 db/db, DMH i.p. 0.4 mg/g bw/day, dosing 6 weeks, Week 16, 30 min): 650 ± 29^bc
Level of OGTT (blood glucose) ([1]; Ex 2 G6 db/db, DMH i.p. 0.4 mg/g bw/day, dosing 6 weeks, Week 16, 60 min): 535 ± 43^bc
Level of OGTT (blood glucose) ([1]; Ex 2 G6 db/db, DMH i.p. 0.4 mg/g bw/day, dosing 6 weeks, Week 16, 120 min): 244 ± 35^ab
Level of OGTT (blood glucose) ([1]; Ex 2 G6 db/db, DMH i.p. 0.4 mg/g bw/day, dosing 6 weeks, Week 18, 0 min): 266 ± 35 mg/dL
Level of OGTT (blood glucose) ([1]; Ex 2 G6 db/db, DMH i.p. 0.4 mg/g bw/day, dosing 6 weeks, Week 18, 15 min): 872 ± 46 mg/dL
Level of OGTT (blood glucose) ([1]; Ex 2 G6 db/db, DMH i.p. 0.4 mg/g bw/day, dosing 6 weeks, Week 18, 30 min): 860 ± 58 mg/dL
Level of OGTT (blood glucose) ([1]; Ex 2 G6 db/db, DMH i.p. 0.4 mg/g bw/day, dosing 6 weeks, Week 18, 60 min): 637 ± 64 mg/dL
Level of OGTT (blood glucose) ([1]; Ex 2 G6 db/db, DMH i.p. 0.4 mg/g bw/day, dosing 6 weeks, Week 18, 120 min): 480 ± 73 mg/dL
OGTT AUC ([1]; Ex 2 G6 db/db, DMH i.p. 0.4 mg/g bw/day, dosing 6 weeks, week 6): 884 ± 84^b
OGTT AUC ([1]; Ex 2 G6 db/db, DMH i.p. 0.4 mg/g bw/day, dosing 6 weeks, week 12): 1026 ± 94^b
OGTT AUC ([1]; Ex 2 G6 db/db, DMH i.p. 0.4 mg/g bw/day, dosing 6 weeks, week 16): 916 ± 68^b
OGTT AUC ([1]; Ex 2 G6 db/db, DMH i.p. 0.4 mg/g bw/day, dosing 6 weeks, week 18): 1291 ± 118^b
Regulation of blood glucose homeostasis (OGTT glucose vs G8) ([1]; Ex 3, medications stopped for at least 3 weeks (FIG. 6A, 6B)): still effective
OGTT AUC ([1]; Ex 3: db/db mice, daily dosing 3 weeks at doses of Table 10, Week 6 (stopped for 3 weeks)): 1263 ± 135^b
OGTT AUC ([1]; Ex 3: db/db mice, daily dosing 3 weeks at doses of Table 10, Week 9 (stopped for 6 weeks)): 1356 ± 149^bc
Injuries in brain, liver, kidney, pancreas, and epididymal fat pads ([2]; Ex 1, after 3 weeks 0.41 mg/g bw/day i.p.): no significant injuries
Severity and incidence of liver glycogen storage vs DB group ([2]; Ex 1, hepatocyte cytoplasm around central venous region): slighter
Injuries in liver, kidney, pancreas, and epididymal fat pads ([2]; Ex 2): No significant injuries

Reference: US11419852B2, “Beta-lactam compounds or salts thereof for use in long-acting prevention or treatment of a glucose metabolism disorder” (GLYCOLYSIS BIOMED CO., LTD., priority 2019, dated 2022)
